In test [1] the target is T1, Integrin alpha-IIb/beta-3 (Homo sapiens) (UniProt P05106+P08514). Nature of the test: Percent inhibition of platelet aggregation at 20 uM. Format: functional.
The target of test [2] is T1, Integrin alpha-IIb/beta-3 (Homo sapiens). Description: Inhibition of Fibrinogen Receptor at 50 uM. Format: protein-complex assay.
The target is the same in test [3]. Description: Percent inhibition of platelet aggregation at 50 uM. The test is classed as functional.

As for `CC(C)(C)OC(=O)NC(CCCCN)C(=O)NC12CC3CC(CC(NCC(=O)O)(C3)C1)C2` (centres undefined), the figures for the inhibition in test [1] and in test [2] were 40% and 44%, respectively. In the case of `CC(=O)N[C@@H](CCCCN)C(=O)N1CCCC(C(=O)NCC(=O)O)C1` (some centres undefined), in test [2], the inhibition – broadly, the share of the control response that was lost under treatment – stood at 24%. The compound `CC(=O)N[C@@H](CCCCN)C(=O)N1CCCC(C(=O)NCCC(=O)O)C1` (some centres undefined) showed an inhibition in test [3] of 86%.

The record behind these values is ChEMBL document CHEMBL1127720, “Adamantane and Nipecotic Acid Derivatives as Novel -Turn Mimics” (Bioorg Med Chem Lett, 1994).
